Results taken from publication PMC10927578, “Structural basis for CFTR inhibition by CFTRinh-172” (Proceedings of the National Academy of Sciences of the …, 2024).

Key:
CFTR = tested on: CFTR; parameters: method as in PMID 36949202; conditions: cited from earlier work; for effect on channel activity: by increasing pore opening while the NBDs are dimerized
WT CFTR [1] = biological target: T1, WT CFTR (Homo sapiens, UniProt P13569); assay: Inside-out excised patch macroscopic current recording, WT CFTR; type: biochemical; conditions: inside-out patches, 3 mM ATP
T1 construct: GFP (PreScission Protease-cleavable) (C, cleaved yes); made in house; host or cells: HEK293S GnTI- suspension cells infected with BacMam baculovirus

CFTR (E1371Q) [2] = biological target: T2, CFTR (E1371Q) (Homo sapiens, UniProt P13569, E1371Q); assay: Inside-out excised patch macroscopic current recording, CFTR (E1371Q); type: biochemical; conditions: 10 µM CFTRinh-172; inside-out patches; PKA-phosphorylated, 3 mM ATP
T2 construct: expressed in transfected cells; host or cells: CHO-K1 (ATCC CCL-61)

K95A CFTR = biological target: T3, K95A CFTR (Homo sapiens, UniProt P13569, K95A); assay: Inside-out excised patch titration, K95A CFTR; type: biochemical; conditions: inside-out patches, 3 mM ATP, Hill coefficient fixed to 1
T3 construct: expressed in transfected cells; host or cells: CHO-K1 (ATCC CCL-61)

T1142I CFTR = biological target: T4, T1142I CFTR (Homo sapiens, UniProt P13569, T1142I); assay: Inside-out excised patch titration, T1142I CFTR; type: biochemical; conditions: inside-out patches, 3 mM ATP, Hill coefficient fixed to 1
T4 construct: expressed in transfected cells; host or cells: CHO-K1 (ATCC CCL-61)

S1141A CFTR = biological target: T5, S1141A CFTR (Homo sapiens, UniProt P13569, S1141A); assay: Inside-out excised patch titration, S1141A CFTR; type: biochemical; conditions: inside-out patches, 3 mM ATP
T5 construct: expressed in transfected cells; host or cells: CHO-K1 (ATCC CCL-61)

WT CFTR [3] = biological target: T1, WT CFTR; assay: Single-channel recording in synthetic planar lipid bilayer, WT CFTR; type: biochemical
CFTR (E1371Q) [4] = biological target: T2, CFTR (E1371Q); assay: Single-channel recording in synthetic planar lipid bilayer, CFTR (E1371Q); type: biochemical; conditions: 10 µM CFTRinh-172, 3 mM ATP, -150 mV, mean and SE, 0.79 ± 0.03 without inhibitor
[5] = biological target: T6, PKA-phosphorylated WT CFTR (Homo sapiens, UniProt P13569); assay: Steady-state ATP hydrolysis, NADH-coupled assay; type: biochemical; conditions: 10 µM CFTRinh-172
T6 construct: GFP (PreScission Protease-cleavable) (C, cleaved yes); made in house; host or cells: HEK293S GnTI- suspension cells infected with BacMam baculovirus

WT CFTR [6] = biological target: T7, WT CFTR (Homo sapiens, UniProt P13569, C128S/C1344S/C1355S/C1395S/C1400S/C1410S/C1458S/C225S/C276S/C343S/C491S/C592M/C647S/C76L/C832S/C866S/S1435C/T388C); assay: smFRET imaging of NBD dimerization, WT CFTR; type: biochemical; conditions: 10 µM CFTRinh-172, 3 mM ATP
T7 construct: GFP (PreScission Protease-cleavable) (C); made in house; host or cells: HEK293S GnTI- suspension cells infected with BacMam baculovirus

CFTR (E1371Q) [7] = biological target: T8, CFTR (E1371Q) (Homo sapiens, UniProt P13569, C128S/C1344S/C1355S/C1395S/C1400S/C1410S/C1458S/C225S/C276S/C343S/C491S/C592M/C647S/C76L/C832S/C866S/E1371Q/S1435C/T388C); assay: smFRET imaging of NBD dimerization, CFTR (E1371Q); type: biochemical; conditions: with CFTRinh-172
T8 construct: GFP (PreScission Protease-cleavable) (C); made in house; host or cells: HEK293S GnTI- suspension cells infected with BacMam baculovirus

CFTR R347A = tested on: CFTR R347A; parameters: method as in PMID 18366345; conditions: R347A vs WT CFTR; cited from earlier work
CFTR R347D = tested on: CFTR R347D; parameters: method as in PMID 18366345; conditions: cited from earlier work
[8] = tested on: cholera toxin-induced intestinal fluid secretion; conditions: in vivo; cited from earlier work
cyst growth = tested on: cyst growth; parameters: method as in PMID 18385427; conditions: animal models of polycystic kidney disease; cited from earlier work

T1 sequence (P13569 whole entry): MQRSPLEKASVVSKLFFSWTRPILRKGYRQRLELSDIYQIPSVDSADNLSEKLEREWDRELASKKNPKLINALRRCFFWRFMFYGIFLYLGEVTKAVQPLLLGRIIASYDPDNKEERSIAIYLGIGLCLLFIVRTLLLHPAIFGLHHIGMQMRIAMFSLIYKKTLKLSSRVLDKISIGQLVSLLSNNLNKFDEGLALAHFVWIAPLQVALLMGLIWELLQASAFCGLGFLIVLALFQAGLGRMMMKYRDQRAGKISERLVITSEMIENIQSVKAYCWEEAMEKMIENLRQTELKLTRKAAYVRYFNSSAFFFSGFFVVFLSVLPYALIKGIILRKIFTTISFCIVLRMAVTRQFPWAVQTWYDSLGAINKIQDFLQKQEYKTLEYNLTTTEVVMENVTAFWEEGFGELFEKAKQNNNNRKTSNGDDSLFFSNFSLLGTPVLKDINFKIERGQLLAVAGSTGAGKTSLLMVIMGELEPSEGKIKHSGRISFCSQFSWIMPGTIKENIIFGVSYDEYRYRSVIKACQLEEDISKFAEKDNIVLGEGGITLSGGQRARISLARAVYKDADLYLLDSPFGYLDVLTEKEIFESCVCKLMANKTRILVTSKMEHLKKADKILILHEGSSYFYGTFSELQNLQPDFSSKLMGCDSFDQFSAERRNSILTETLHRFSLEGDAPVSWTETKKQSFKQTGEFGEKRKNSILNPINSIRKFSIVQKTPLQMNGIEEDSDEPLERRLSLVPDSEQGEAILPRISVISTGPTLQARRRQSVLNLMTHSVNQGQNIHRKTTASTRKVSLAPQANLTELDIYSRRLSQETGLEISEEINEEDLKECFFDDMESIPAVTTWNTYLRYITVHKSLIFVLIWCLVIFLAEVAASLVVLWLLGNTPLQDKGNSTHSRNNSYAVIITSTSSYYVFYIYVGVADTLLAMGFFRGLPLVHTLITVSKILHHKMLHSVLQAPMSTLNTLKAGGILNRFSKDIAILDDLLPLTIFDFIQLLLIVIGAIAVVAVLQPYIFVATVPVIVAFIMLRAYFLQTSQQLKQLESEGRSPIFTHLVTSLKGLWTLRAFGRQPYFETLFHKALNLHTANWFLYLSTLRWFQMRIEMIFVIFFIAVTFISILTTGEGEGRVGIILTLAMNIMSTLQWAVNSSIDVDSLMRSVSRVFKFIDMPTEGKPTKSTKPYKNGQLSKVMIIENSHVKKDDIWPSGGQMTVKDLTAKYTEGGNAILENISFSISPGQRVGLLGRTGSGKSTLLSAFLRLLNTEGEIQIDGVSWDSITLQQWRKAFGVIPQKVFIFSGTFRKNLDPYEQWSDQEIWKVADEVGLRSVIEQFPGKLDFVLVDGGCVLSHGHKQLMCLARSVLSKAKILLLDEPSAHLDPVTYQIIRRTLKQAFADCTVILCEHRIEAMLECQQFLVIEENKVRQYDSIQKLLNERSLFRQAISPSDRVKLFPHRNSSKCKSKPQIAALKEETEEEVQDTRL
T6 sequence (P13569 whole entry): as above
T7 sequence (P13569 1-1480 with the stated changes): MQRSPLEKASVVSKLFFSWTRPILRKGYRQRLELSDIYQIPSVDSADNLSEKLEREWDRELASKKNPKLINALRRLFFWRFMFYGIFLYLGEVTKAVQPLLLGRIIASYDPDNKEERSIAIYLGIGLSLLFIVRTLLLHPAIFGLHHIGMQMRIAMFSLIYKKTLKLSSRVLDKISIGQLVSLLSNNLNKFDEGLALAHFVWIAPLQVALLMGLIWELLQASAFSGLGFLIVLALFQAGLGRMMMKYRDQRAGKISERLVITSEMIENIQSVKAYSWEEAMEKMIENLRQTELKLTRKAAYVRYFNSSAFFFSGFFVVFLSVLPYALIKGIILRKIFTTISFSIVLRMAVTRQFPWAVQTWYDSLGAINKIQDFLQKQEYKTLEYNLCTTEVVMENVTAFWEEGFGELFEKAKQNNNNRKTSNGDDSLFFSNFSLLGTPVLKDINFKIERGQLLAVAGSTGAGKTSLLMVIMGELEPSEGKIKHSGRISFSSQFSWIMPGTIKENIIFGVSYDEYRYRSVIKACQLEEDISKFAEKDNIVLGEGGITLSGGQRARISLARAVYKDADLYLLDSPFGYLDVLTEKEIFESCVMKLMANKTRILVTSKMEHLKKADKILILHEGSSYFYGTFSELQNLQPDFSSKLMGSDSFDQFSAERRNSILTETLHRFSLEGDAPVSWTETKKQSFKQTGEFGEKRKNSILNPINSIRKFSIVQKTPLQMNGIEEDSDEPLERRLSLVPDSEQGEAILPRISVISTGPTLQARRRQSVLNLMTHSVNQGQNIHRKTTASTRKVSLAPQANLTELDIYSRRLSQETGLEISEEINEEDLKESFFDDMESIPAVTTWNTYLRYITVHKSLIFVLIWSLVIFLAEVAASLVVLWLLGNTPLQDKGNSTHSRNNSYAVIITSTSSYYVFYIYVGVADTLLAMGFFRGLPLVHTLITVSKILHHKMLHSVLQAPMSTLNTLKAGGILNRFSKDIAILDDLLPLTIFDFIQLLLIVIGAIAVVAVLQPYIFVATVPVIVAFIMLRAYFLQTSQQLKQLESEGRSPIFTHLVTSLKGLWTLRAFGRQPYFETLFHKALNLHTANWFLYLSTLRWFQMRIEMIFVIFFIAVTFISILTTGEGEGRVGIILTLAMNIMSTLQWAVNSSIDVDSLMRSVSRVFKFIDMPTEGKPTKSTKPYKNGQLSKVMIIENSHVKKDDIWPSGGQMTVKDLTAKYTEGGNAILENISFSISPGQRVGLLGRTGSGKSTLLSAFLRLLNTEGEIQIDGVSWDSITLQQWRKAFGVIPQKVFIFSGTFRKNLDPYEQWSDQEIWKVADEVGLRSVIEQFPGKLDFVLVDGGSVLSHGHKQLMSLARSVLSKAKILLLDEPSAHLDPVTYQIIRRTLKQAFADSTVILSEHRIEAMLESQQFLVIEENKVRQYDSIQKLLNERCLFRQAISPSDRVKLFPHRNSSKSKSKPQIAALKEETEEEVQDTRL
T2 sequence (P13569 whole entry E1371Q): as the sequence (P13569 whole entry) above, with E1371Q counted along it
T5 sequence (P13569 whole entry S1141A): as the sequence (P13569 whole entry) above, with S1141A counted along it
T4 sequence (P13569 whole entry T1142I): as the sequence (P13569 whole entry) above, with T1142I counted along it
T3 sequence (P13569 whole entry K95A): as the sequence (P13569 whole entry) above, with K95A counted along it
T8 sequence (P13569 1-1480 with the stated changes): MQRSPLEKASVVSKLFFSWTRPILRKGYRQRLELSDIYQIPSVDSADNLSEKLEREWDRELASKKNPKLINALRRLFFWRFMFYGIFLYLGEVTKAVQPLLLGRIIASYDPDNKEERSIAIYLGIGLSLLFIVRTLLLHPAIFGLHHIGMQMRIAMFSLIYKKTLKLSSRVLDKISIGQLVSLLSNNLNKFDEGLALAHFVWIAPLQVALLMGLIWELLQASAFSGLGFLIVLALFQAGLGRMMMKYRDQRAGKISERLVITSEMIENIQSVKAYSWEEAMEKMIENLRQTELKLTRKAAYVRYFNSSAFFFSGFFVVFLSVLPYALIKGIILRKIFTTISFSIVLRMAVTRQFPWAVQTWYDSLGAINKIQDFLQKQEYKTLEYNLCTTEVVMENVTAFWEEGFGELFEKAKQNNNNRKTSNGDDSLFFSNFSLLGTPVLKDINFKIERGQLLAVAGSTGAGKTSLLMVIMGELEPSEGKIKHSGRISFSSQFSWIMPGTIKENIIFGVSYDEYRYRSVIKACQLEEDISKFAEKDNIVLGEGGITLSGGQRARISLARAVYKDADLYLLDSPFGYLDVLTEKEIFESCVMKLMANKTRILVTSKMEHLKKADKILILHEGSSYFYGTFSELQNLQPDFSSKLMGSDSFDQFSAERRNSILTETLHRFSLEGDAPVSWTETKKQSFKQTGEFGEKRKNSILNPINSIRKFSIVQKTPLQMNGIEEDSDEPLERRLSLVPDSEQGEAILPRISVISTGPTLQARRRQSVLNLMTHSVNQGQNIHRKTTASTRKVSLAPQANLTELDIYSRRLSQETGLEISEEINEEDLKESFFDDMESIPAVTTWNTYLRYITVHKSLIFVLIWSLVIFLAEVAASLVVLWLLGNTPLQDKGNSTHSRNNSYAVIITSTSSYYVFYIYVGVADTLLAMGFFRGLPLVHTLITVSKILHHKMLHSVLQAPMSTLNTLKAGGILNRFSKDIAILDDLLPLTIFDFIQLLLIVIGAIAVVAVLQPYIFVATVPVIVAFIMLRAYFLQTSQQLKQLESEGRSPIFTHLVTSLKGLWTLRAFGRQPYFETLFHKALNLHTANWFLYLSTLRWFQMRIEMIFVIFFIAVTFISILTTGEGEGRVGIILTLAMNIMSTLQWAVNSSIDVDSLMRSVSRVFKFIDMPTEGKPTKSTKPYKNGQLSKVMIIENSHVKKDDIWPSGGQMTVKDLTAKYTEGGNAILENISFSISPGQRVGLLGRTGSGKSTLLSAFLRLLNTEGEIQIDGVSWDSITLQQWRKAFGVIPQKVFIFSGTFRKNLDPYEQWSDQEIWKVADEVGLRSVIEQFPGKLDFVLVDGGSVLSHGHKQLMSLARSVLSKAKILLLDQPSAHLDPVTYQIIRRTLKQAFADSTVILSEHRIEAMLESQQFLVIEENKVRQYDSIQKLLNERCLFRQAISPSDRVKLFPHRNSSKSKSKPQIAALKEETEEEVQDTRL

SMILES | effect on channel activity (CFTR) | effect on ATP turnover (CFTR) | reduction of macroscopic current (WT CFTR [1]; 10 µM CFTRinh-172, PKA-phosphorylated) [%] | IC50 (WT CFTR [1]; WT CFTR, Hill coefficient fixed to 1) [µM] | inhibition of macroscopic current relative to WT CFTR (CFTR (E1371Q) [2]) | IC50 (K95A CFTR) [µM] | IC50 (T1142I CFTR) [µM] | effect of S1141A substitution on inhibitory potency (S1141A CFTR) | open probability (WT CFTR [3]; 10 µM CFTRinh-172, 3 mM ATP, -150 mV, mean and SE, 0.21 ± 0.05 without inhibitor) | mean open dwell time (WT CFTR [3]; with CFTRinh-172, 3 mM ATP, 487 ± 92 ms without inhibitor) [ms] | open probability (CFTR (E1371Q) [4]) | change of Michaelis-Menten constant (Km) for ATP [5] | saturating ATP turnover (kcat) ([5]; 22.0 ± 2.2 without inhibitor) [ATP/protein/min] | effect on dwell time of the NBD-dimerized state (WT CFTR [6]) | effect on probability of NBD dimerization (WT CFTR [6]) | effect on conformational dynamics (CFTR (E1371Q) [7]) | decrease in potency on substitution of R347 with alanine (CFTR R347A) | effect of R347D substitution on inhibition (CFTR R347D) | cholera toxin-induced intestinal fluid secretion [8] | cyst growth (cyst growth)
CC(C)(C)c1cc(C(C)(C)C)c(NC(=O)c2c[nH]c3ccccc3c2=O)cc1O [Ivacaftor, N-(2,4-Di-tert-butyl-5-hydroxyphenyl)-4-oxo-1,4-dihydroquinoline-3-carboxamide] | enhance channel activity | increase ATP turnover |  |  |  |  |  |  |  |  |  |  |  |  |  |  |  |  |  | 
CC1(C)Cc2c(sc(NC(=O)c3ccn[nH]3)c2C(N)=O)C(C)(C)O1 [GLPG1837, N-(3-Carbamoyl-5,5,7,7-tetramethyl-5,7-dihydro-4H-thieno[2,3-c]pyran-2-yl)-lH-pyrazole-5-carboxamide] | enhance channel activity | increase ATP turnover |  |  |  |  |  |  |  |  |  |  |  |  |  |  |  |  |  | 
O=C(O)c1ccc(/C=C2\SC(=S)N(c3cccc(C(F)(F)F)c3)C2=O)cc1 [CFTRinh-172] |  |  | 96 | 0.6 ± 0.1 | comparable level of inhibition | 3.5 ± 0.9 | 5.3 ± 3.1 | no effect on inhibitory potency | 0.007 ± 0.003 | 109 ± 14 | 0.0011 ± 0.0004 | not significantly changed | 5.2 ± 1.0 | did not significantly affect | did not significantly affect | did not affect | over 30 fold | nearly eliminated its inhibitory effect | block cholera toxin-induced intestinal fluid secretion | suppress cyst growth
